This is an account of results in US8415486B2, “IAP inhibitors” (TetraLogic Pharmaceuticals Corp., priority 2009, dated 2013).

In one assay the target is T1, XIAP BIR-3 (Homo sapiens, UniProt P98170).
T1 construct: 40 nM of the respective IAP BIR3
As to the kind of experiment: Fluorescence polarization binding to XIAP BIR-3 with labeled peptide AbuRPF-K(5-Fam)-NH2. The note with it: 40 nM BIR3, 5 nM labeled peptide, reported as ranges. As to the method: (§1) The binding affinities of the compounds are reported as a KD value (μM). Briefly, various concentrations of test peptides were mixed with 5 nM of the fluorescently labeled peptide (i.e., a mutated N-terminal Smac peptide—AbuRPF-K(5-Fam)-NH2) and 40 nM of the respective IAP BIR3 for 15 min at RT in […] of 0.1M Potassium Phosphate buffer, pH 7.5 containing 100 mg/ml bovine g-globulin. Following incubation, the polarization values (mP) were measured on a Victor2V (available from PerkinElmer Life Sciences) using a 485 nm excitation filter and a 520 nm emission filter. The reported binding affinities (KD values) are supplied as ranges (A=<0.1 μM, B=0.1 μM to 1 μM, C=>1 μM to 10 μM, D=>10 μM).
On the technique in general: Polarisation of emitted light reports the rotation of a fluorescent probe.

Another assay has as its target T2, cIAP-1 BIR-3 (Homo sapiens, UniProt Q13490).
T2 construct: 40 nM of the respective IAP BIR3
Put plainly: Fluorescence polarization binding to cIAP-1 BIR-3 with labeled peptide AbuRPF-K(5-Fam)-NH2. Particulars: 40 nM BIR3, 5 nM labeled peptide, reported as ranges, read-out: KD (c-IAP-1 BIR3). As to the method: as §1

Assay [1] concerns ovarian cancer cell line, SK-OV-3. Put plainly: SK-OV-3 cell growth inhibition (MTT, 72 hrs). Particulars: Homo sapiens, concentration giving 50% cell survival, reported as ranges. It counts as cell-based. As to the method: Compounds of the invention also were tested for their ability to inhibit the growth of an ovarian cancer cell line, SK-OV-3. A known assay previously used for measuring cell growth (as described in Hansen, M. B., Nielsen, S. E., and Berg, K. (1989) J. Immunol. Methods 119, 203-210 and incorporated herein by reference in its entirety) was used. Briefly, SK-OV-3 cells are seeded in 96-well plates in McCoy's medium containing 10% fetal bovine serum albumin (5,000 per well) and incubated overnight at 37° C. The next day, test compounds are added at various concentrations (0.003-10 μM) and the plates are incubated at 37° C. for an additional 72 hrs. This incubation time was considered to be optimal for measuring inhibitory effects of the different compounds tested. 50 microliters of 5 mg/mL MTT reagent is added to each well and the plates are incubated at 37° C. for another three (3) hours. At the end of the three (3) hour incubation period, 50 microliters of DMSO is added to each well to dissolve cells and the optical density (OD) of the wells is measured with a microplate reader (Victor^2 1420, Wallac, Finland) at 535 nm. Cell survival (CS) was calculated using the following equation: CS=(OD treated well/mean OD control wells)×100%.
The CC50 (reported in the following tables), is defined as the drug concentration that results in 50% cell survival (CS), and is derived by calculating the point where the dose-response curve crosses the 50% CS point using GraphPad Prism. The reported CC50 values are supplied as ranges (A=<0.1 μM, B=0.1 μM to 1 μM, C=>1 μM to 10 μM, D=>10 μM).

T2 sequence (Q13490 253-363 limits assumed): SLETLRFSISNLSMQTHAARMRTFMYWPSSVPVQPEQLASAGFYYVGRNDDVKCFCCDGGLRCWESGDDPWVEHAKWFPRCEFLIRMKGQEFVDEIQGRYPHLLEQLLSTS
T1 sequence (P98170 241-356 limits assumed): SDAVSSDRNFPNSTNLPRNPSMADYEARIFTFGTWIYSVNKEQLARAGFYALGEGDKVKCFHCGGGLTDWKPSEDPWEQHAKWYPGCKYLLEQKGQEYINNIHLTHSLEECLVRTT

A word on the Kd: it is the equilibrium constant for the complex coming apart. Usually CC50 stands for the concentration at which the toxic effect on the cells reaches its halfway point. Lower therefore signals greater toxicity to the cells. With `CN[C@@H](C)C(=O)N[C@H](C(=O)N1CC[C@@H]2[C@H]1[C@@H](OCc1ccc(F)cc1)CN2C(=O)OC(C)(C)C)C(C)(C)C` [Example 34, 4-[3,3-Dimethyl-2-(2-methylamino-propionylamino)-butyryl]-3-(4-fluoro-benzyloxy)-hexahydro-pyrrolo[3,2-b]pyrrole-1-carboxylic acid tert-butyl ester], the Kd on XIAP BIR-3 and on cIAP-1 BIR-3 was under 0.1 µM in each case. This compound also registered a CC50 in assay [1] of under 0.1 µM.
`CN[C@@H](C)C(=O)N[C@H](C(=O)N1CC[C@H]2NC[C@H](OCc3ccc(F)cc3)[C@H]21)C(C)(C)C` [Example 35, N-{1-[6-(4-Fluoro-benzyloxy)-hexahydro-pyrrolo[3,2-b]pyrrole-1-carbonyl]-2,2-dimethyl-propyl}-2-methylamino-propionamide ester]: the Kd at XIAP BIR-3 was 0.1 to 1 µM; on cIAP-1 BIR-3 it was under 0.1 µM. The compound also had a half-maximal cytotoxic concentration (CC50) in assay [1] of under 0.1 µM.
For the compound `CNC(=O)N1C[C@H](OCc2ccc(F)cc2)[C@@H]2[C@H]1CCN2C(=O)[C@@H](NC(=O)[C@H](C)NC)C(C)(C)C` [Example 36, 4-[3,3-Dimethyl-2-(2-methylamino-propionylamino)-butyryl]-3-(4-fluoro-benzyloxy)-hexahydro-pyrrolo[3,2-b]pyrrole-1-carboxylic acid methylamide], the Kd on XIAP BIR-3 was 0.1 to 1 µM; at cIAP-1 BIR-3, under 0.1 µM. Further, the CC50 in assay [1] was under 0.1 µM.
In the case of `CN[C@@H](C)C(=O)N[C@H](C(=O)N1CC[C@@H]2[C@H]1[C@@H](OCc1ccc(F)cc1)CN2C(=O)NC(C)C)C(C)(C)C` [Example 37, 4-[3,3-Dimethyl-2-(2-methylamino-propionylamino)-butyryl]-3-(4-fluoro-benzyloxy)-hexahydro-pyrrolo[3,2-b]pyrrole-1-carboxylic acid isopropylamide], the Kd on XIAP BIR-3 and on cIAP-1 BIR-3 was under 0.1 µM in each case. Besides, the CC50 in assay [1] is under 0.1 µM.
As for `CN[C@@H](C)C(=O)N[C@H](C(=O)N1CC[C@@H]2[C@H]1[C@@H](OCc1ccc(F)cc1)CN2S(=O)(=O)CC(C)C)C(C)(C)C` [Example 38, N-{1-[6-(4-Fluoro-benzyloxy)-4-(2-methyl-propane-1-sulfonyl)-hexahydro-pyrrolo[3,2-b]pyrrole-1-carbonyl]-2,2-dimethyl-propyl}-2-methylamino-propionamide], the Kd on XIAP BIR-3 and at cIAP-1 BIR-3 was under 0.1 µM in each case. This compound also came in with a half-maximal cytotoxic concentration (CC50) in assay [1] of under 0.1 µM.
For the compound `CN[C@@H](C)C(=O)N[C@H](C(=O)N1CC[C@@H]2[C@H]1[C@@H](OCc1ccc(F)cc1)CN2C(=O)CC(C)C)C(C)(C)C` [Example 39, N-{1-[6-(4-Fluoro-benzyloxy)-4-(3-methyl-butyryl)-hexahydro-pyrrolo[3,2-b]pyrrole-1-carbonyl]-2,2-dimethyl-propyl}-2-methylamino-propionamide], the Kd on XIAP BIR-3 and at cIAP-1 BIR-3 was under 0.1 µM in each case. The CC50 in assay [1] is under 0.1 µM.
`CN[C@@H](C)C(=O)N[C@H](C(=O)N1CC[C@@H]2[C@H]1[C@@H](OCc1ccc(F)cc1)CN2C(C)=O)C(C)(C)C` [Example 40, N-{1-[4-Acetyl-6-(4-fluoro-benzyloxy)-hexahydro-pyrrolo[3,2-b]pyrrole-1-carbonyl]-2,2-dimethyl-propyl}-2-methylamino-propionamide]: the Kd at XIAP BIR-3 and on cIAP-1 BIR-3 was under 0.1 µM each time. Besides, the CC50 in assay [1] is under 0.1 µM.
In the case of `CN[C@@H](C)C(=O)N[C@H](C(=O)N1CC[C@@H]2[C@H]1[C@@H](OCc1ccc(F)cc1)CN2C(=O)N(C)C)C(C)(C)C` [Example 41, (3S,3aS,6aR)-4-((S)-3,3-dimethyl-2((S)-2-(methylamino)propanamido)butanoyl)-3-(4-fluorobenzyloxy)-N,N-dimethylhexahydropyrrolo[3,2-b]pyrrole-1(2H)-carboxamide], the Kd on XIAP BIR-3 and on cIAP-1 BIR-3 was under 0.1 µM in each case. For the same compound, in assay [1], the CC50 is under 0.1 µM.
For the compound `CN[C@@H](C)C(=O)N[C@H](C(=O)N1CC[C@@H]2[C@H]1[C@@H](OCc1ccc(F)cc1)CN2C(=O)C(C)=O)C(C)(C)C` [Example 42, N-{1-[6-(4-Fluoro-benzyloxy)-4-(2-oxo-propionyl)-hexahydro-pyrrolo[3,2-b]pyrrole-1-carbonyl]-2,2-dimethyl-propyl}-2-methylamino-propionamide], the equilibrium dissociation constant (Kd) at XIAP BIR-3 and on cIAP-1 BIR-3 was under 0.1 µM throughout. Further, in assay [1], the CC50 is under 0.1 µM.
For `CN[C@@H](C)C(=O)N[C@H](C(=O)N1CC[C@@H]2[C@H]1[C@@H](OCc1ccc(F)cc1)CN2C1CCOCC1)C(C)(C)C` [Example 43, (S)—N—((S)-1-((3aR,6S,6aS)-6-(4-fluorobenzyloxy)-4-(tetrahydro-2H-pyran-4-yl)hexahydropyrrolo[3,2-b]pyrrol-1(2H)-yl)-3,3-dimethyl-1-oxobutan-2-yl)-2-(methylamino)propanamide], the Kd on XIAP BIR-3 was 0.1 to 1 µM; at cIAP-1 BIR-3, under 0.1 µM. Also, in assay [1], the CC50 is under 0.1 µM.
Turning to `CN[C@@H](C)C(=O)N[C@H](C(=O)N1CC[C@@H]2[C@H]1[C@@H](OCc1ccc(F)cc1)CN2C1CCCC1)C(C)(C)C` [Example 44, (S)—N—((S)-1-((3aR,6S,6aS)-4-cyclopentyl-6-(4-fluorobenzyloxy)hexahydropyrrolo[3,2-b]pyrrol-1(2H)-yl)-3,3-dimethyl-1-oxobutan-2-yl)-2-(methylamino) propanamide], the results for the Kd at XIAP BIR-3 and on cIAP-1 BIR-3 were 0.1 to 1 µM and under 0.1 µM, respectively. Besides, in assay [1], the CC50 is under 0.1 µM.
As for `CN[C@@H](C)C(=O)N[C@H](C(=O)N1CC[C@@H]2[C@H]1[C@@H](OCc1ccc(F)cc1)CN2c1ncccn1)C(C)(C)C` [Example 45, (S)—N—((S)-1-((3aR,6S,6aS)-6-(4-fluorobenzyloxy)-4-(pyrimidin-2-yl)hexahydropyrrolo[3,2-b]pyrrol-1(2H)-yl)-3,3-dimethyl-1-oxobutan-2-yl)-2-(methylamino)propanamide], the values for the Kd at XIAP BIR-3 and at cIAP-1 BIR-3 were 0.1 to 1 µM and under 0.1 µM, respectively. In assay [1], this compound displayed a CC50 of under 0.1 µM.
Turning to `CNC(C)C(=O)NC(C(=O)N1CCC2C1C(OC(=O)NCc1ccccc1)CN2C(=O)NC(C)C)C(C)(C)C` (stereo not drawn) [Example 46, Benzyl-carbamic acid 4-[3,3-dimethyl-2-(2-methylamino-propionylamino)-butyryl]-1-isopropylcarbamoyl-octahydro-pyrrolo[3,2-b]pyrrol-3-yl ester], the dissociation constant (Kd) is 0.1 to 1 µM at XIAP BIR-3 and under 0.1 µM on cIAP-1 BIR-3. For the same compound, the CC50 in assay [1] is under 0.1 µM.
Turning to `CN[C@@H](C)C(=O)N[C@H](C(=O)N1CC[C@@H]2[C@H]1[C@@H](OC(=O)Nc1ccccc1)CN2C(=O)NC(C)C)C(C)(C)C` [Example 47, Phenyl-carbamic acid 4-[3,3-dimethyl-2-(2-methylamino-propionylamino)-butyryl]-1-isopropylcarbamoyl-octahydro-pyrrolo[3,2-b]pyrrol-3-yl ester], the dissociation constant (Kd) on XIAP BIR-3 is 0.1 to 1 µM; on cIAP-1 BIR-3 it was under 0.1 µM. Also, the half-maximal cytotoxic concentration (CC50) in assay [1] is under 0.1 µM.
